≈ marks a conversion by molar mass, not a printed value.

Holding throughout (assay type): functional
The subject of experiment [1] is Candida. In words: Antifungal activity against Candida spp.
Experiment [2] has as its system Cryptococcus neoformans. In words: Antifungal activity against Cryptococcus neoformans. Particulars: Cryptococcus neoformans; read-out: MIC.
Experiment [3] concerns Candida parapsilosis. In words: Antifungal activity against Candida parapsilosis. The conditions noted are these: Lodderomyces parapsilosis.
Experiment [4] concerns Candida albicans. In words: Antifungal activity against Candida albicans assessed as inhibition of fungal growth incubated for 20 hrs.
For experiment [5], the system named is Candida albicans. In words: Antifungal activity against Candida albicans.
Experiment [6] concerns Candida albicans. Kind of experiment: In vivo antifungal activity against Candida albicans infected in CDF1 mouse treated po 4 hrs after injection twice daily for 2 days measured on day 10. The conditions noted are these: 48 h, time 2 day.
Experiment [7] deals with Cryptococcus neoformans. In words: Antifungal activity against Cryptococcus neoformans TIMM1855 assessed as inhibition of fungal growth incubated for 68 hrs.
In experiment [8] the test system is Cryptococcus neoformans. In words: Antifungal activity against Cryptococcus neoformans TIMM1740 assessed as inhibition of fungal growth incubated for 68 hrs.
Experiment [9] has as its system Candida albicans. Kind of experiment: Antifungal activity against Candida albicans TIMM1756 assessed as inhibition of fungal growth incubated for 20 hrs.
The test system of experiment [10] is Candida albicans. Kind of experiment: Antifungal activity against Candida albicans TIMM1850 assessed as inhibition of fungal growth incubated for 20 hrs.
The test system of experiment [11] is Aspergillus fumigatus. In words: In vivo antifungal activity against Aspergillus fumigatus infected in CDF1 mouse treated po 4 hrs after injection twice daily for 2 days measured on day 10. The conditions noted are these: 48 h, time 2 day.
Experiment [12] concerns Aspergillus fumigatus. Kind of experiment: Antifungal activity against Aspergillus fumigatus TIMM1728 assessed as inhibition of fungal growth incubated for 20 hrs.
For experiment [13], the system named is Aspergillus fumigatus. Kind of experiment: Antifungal activity against Aspergillus fumigatus IFO6344 assessed as inhibition of fungal growth incubated for 20 hrs.
For experiment [14], the system named is Aspergillus flavus. In words: Antifungal activity against Aspergillus flavus SANK 18497 by 96-well microplate method.
The subject of experiment [15] is Aspergillus fumigatus. Kind of experiment: Antifungal activity against Aspergillus fumigatus SANK 10569 by 96-well microplate method.
The test system of experiment [16] is Candida albicans. Kind of experiment: Antifungal activity against Candida albicans SANK 51486 by 96-well microplate method.
The subject of experiment [17] is Cryptococcus neoformans. Kind of experiment: Antifungal activity against Cryptococcus neoformans TIMM 1855 by 96-well microplate method.
Experiment [18] relates to Aspergillus fumigatus. In words: Antifungal activity against Aspergillus fumigatus.

On to `C[C@H](n1nnc(CCN2CCN(c3cccc(C(F)(F)F)c3)CC2)n1)[C@](O)(Cn1cncn1)c1ccc(F)cc1F`, for which the MIC in [1] and in [2] was 0.25 µg/mL (≈ 0.433 µM) each time. Consider `C[C@@H](N1CCN(c2ccc(-n3cnn(Cc4cccc(C(F)(F)F)c4)c3=O)cn2)CC1)[C@](O)(Cn1cncn1)c1ccc(F)cc1F`, for which it took 4 µg/mL (≈ 6.1 µM) to inhibit growth in experiment [3] (MIC).

Consider `CC(C)CCC(=O)OC[n+]1cnn(C[C@](O)(c2ccc(F)cc2F)[C@@H](C)N2CCN(c3ccc(-n4cnnn4)cc3)C2=O)c1.[I-]`, for which, in experiment [4], the MIC came to 0.016 µg/mL. Still for that read-out and setting: for `C[C@@H](N1CCN(c2ccc(-n3cnnn3)cc2)C1=O)[C@](O)(Cn1c[n+](COC(=O)OC2COCOC2)cn1)c1ccc(F)cc1F.[I-]` the value was 0.016 µg/mL. In turn, `C[C@@H](OCc1cc(-c2cc(F)cc(F)c2)no1)[C@](O)(Cn1cncn1)c1ccc(F)cc1F` yielded an MIC80 in experiment [5] of 0.0313 µg/mL (≈ 0.0677 µM).

As to `C[C@@H](OCc1cc(-c2ccc(Cl)cc2)no1)[C@](O)(Cn1cncn1)c1ccc(F)cc1F`, the MIC80 in experiment [5] came to 0.0313 µg/mL (≈ 0.0679 µM). Regarding `C[C@@H](N1CCN(c2ccc(-n3cnn(Cc4cc(C(F)(F)F)cc(C(F)(F)F)c4)c3=O)nc2)CC1)[C@](O)(Cn1cncn1)c1ccc(F)cc1F`, in experiment [3], it took 4 µg/mL (≈ 5.53 µM) to inhibit growth (MIC).

Take `C[C@@H](OCc1cc(-c2cc(F)c(F)c(F)c2F)no1)[C@](O)(Cn1cncn1)c1ccc(F)cc1F`: the MIC80 in experiment [5] was determined as 0.0313 µg/mL (≈ 0.0628 µM).

`CC(C)COC(=O)OC[n+]1cnn(C[C@](O)(c2ccc(F)cc2F)[C@@H](C)N2CCN(c3ccc(-n4cnnn4)cc3)C2=O)c1.[I-]`: in experiment [4], the minimum inhibitory concentration (MIC) was 0.016 µg/mL. Consider `C[C@@H](N1CCN(c2ccc(-n3cccn3)cc2)C1=O)[C@](O)(Cn1cncn1)c1ccc(F)cc1F`, for which the ED50 in [6] came to 2 mg/kg; in experiment [11], 4.4 mg/kg. Further, the MIC in [7] is 0.016 µg/mL (≈ 0.0334 µM); in experiment [8], 0.016 µg/mL (≈ 0.0334 µM); in [9], at most 0.001 µg/mL; in experiment [10] it was at most 0.001 µg/mL; in experiment [12] it was 0.25 µg/mL (≈ 0.521 µM); in [13], 0.25 µg/mL (≈ 0.521 µM). For `C[C@@H](S[C@H]1CO[C@H](/C=C/C=C/c2ccc(C#N)cc2F)OC1)[C@](O)(Cn1cncn1)c1ccc(F)cc1`, the MIC in [14], in [15], in [16] and in experiment [17] was at most 0.008 µg/mL in each case. Consider `Cc1cccc(-c2cc(CO[C@H](C)[C@](O)(Cn3cncn3)c3ccc(F)cc3F)on2)c1`, for which the MIC80 in [5] amounted to 0.0313 µg/mL (≈ 0.0711 µM). For the compound `C[C@@H](N1CCN(c2ccc(-n3cnnn3)cc2)C1=O)[C@](O)(Cn1c[n+](COC(=O)C(C)(C)C)cn1)c1ccc(F)cc1F.[I-]`, the MIC in experiment [4] stood at 0.016 µg/mL. In experiment [5], `C[C@@H](OCc1cc(-c2c(F)cc(F)cc2F)no1)[C@](O)(Cn1cncn1)c1ccc(F)cc1F` showed an MIC80 of 0.0313 µg/mL (≈ 0.0652 µM). Take `CC(C)n1ncn(-c2ccc(N3CCN([C@H](C)[C@](O)(Cn4cncn4)c4ccc(F)cc4F)CC3)cn2)c1=O`: the minimum inhibitory concentration (MIC) amounted to 0.25 µg/mL (≈ 0.463 µM) in [3], 0.25 µg/mL (≈ 0.463 µM) in experiment [1], 4 µg/mL (≈ 7.41 µM) in experiment [18] and 0.5 µg/mL (≈ 0.927 µM) in experiment [2]. Compound `C[C@@H](OCc1cc(-c2ccc(F)cc2F)no1)[C@](O)(Cn1cncn1)c1ccc(F)cc1F` gave an MIC80 in experiment [5] of 0.0313 µg/mL (≈ 0.0677 µM).

With `C[C@@H](N1CCN(c2ccc(-n3cnn(Cc4cc(C(F)(F)F)cc(C(F)(F)F)c4)c3=O)cn2)CC1)[C@](O)(Cn1cncn1)c1ccc(F)cc1F`, in [3], the MIC worked out at 4 µg/mL (≈ 5.53 µM). Turning to `C[C@@H](OCc1cc(-c2cc(F)ccc2F)no1)[C@](O)(Cn1cncn1)c1ccc(F)cc1F`, the MIC80 in [5] was determined as 0.0313 µg/mL (≈ 0.0677 µM). Still for that read-out and setting: the value for `C[C@@H](OCc1cc(-c2c(F)cccc2F)no1)[C@](O)(Cn1cncn1)c1ccc(F)cc1F` was 0.0313 µg/mL (≈ 0.0677 µM).

Regarding `C[C@@H](OCc1cc(-c2ccccc2Cl)no1)[C@](O)(Cn1cncn1)c1ccc(F)cc1F`, in [5], the MIC80 came out at 0.0313 µg/mL (≈ 0.0679 µM). In turn, `C[C@@H](OCc1cc(-c2cccc(F)c2F)no1)[C@](O)(Cn1cncn1)c1ccc(F)cc1F` came in with an MIC80 in [5] of 0.0313 µg/mL (≈ 0.0677 µM). `C[C@@H](OCc1cc(-c2ccc(F)c(F)c2)no1)[C@](O)(Cn1cncn1)c1ccc(F)cc1F` displayed an MIC80 in experiment [5] of 0.0313 µg/mL (≈ 0.0677 µM). Turning to `CC(C)C(=O)OC[n+]1cnn(C[C@](O)(c2ccc(F)cc2F)[C@@H](C)N2CCN(c3ccc(-n4cnnn4)cc3)C2=O)c1.[I-]`, the MIC in experiment [4] was 0.016 µg/mL. The compound `C[C@@H](N1CCN(c2ccc(-n3cnn(Cc4cc(C(F)(F)F)cc(C(F)(F)F)c4C(F)(F)F)c3=O)nc2)CC1)[C@](O)(Cn1cncn1)c1ccc(F)cc1F` returned an MIC in [3] of 4 µg/mL (≈ 5.05 µM). Regarding `C[C@@H](OCc1cc(-c2ccc(Cl)c(F)c2)no1)[C@](O)(Cn1cncn1)c1ccc(F)cc1F`, the MIC80 in experiment [5] came out at 0.0313 µg/mL (≈ 0.0654 µM).

`CC(C)Cn1ncn(-c2ccc(N3CCN([C@H](C)[C@](O)(Cn4cncn4)c4ccc(F)cc4F)CC3)nc2)c1=O`: the MIC was found to be 0.25 µg/mL (≈ 0.452 µM) in experiment [3], 0.03 µg/mL (≈ 0.0542 µM) in experiment [1], 4 µg/mL (≈ 7.23 µM) in experiment [18] and 0.25 µg/mL (≈ 0.452 µM) in [2].

(Values after ChEMBL document CHEMBL5126532, “Synthetic approaches and structural diversity of triazolylbutanols derived from voriconazole in the antifungal drug development” (Eur J Med Chem, 2022).)
